Test results from US20240246937A1 (MERCK SHARP & DOHME LLC, priority 2021, published 2024).

What follows are molecules tested against recombinant IL4I1 (Homo sapiens (Human), UniProt Q96RQ9) (assay: IL4I1 Enzymatic Assay (Amplex Red/HRP coupled fluorescence detection of H2O2)). Conditions: 240 min; recombinant IL4I1, four-hour pre-incubation with compound.
Type: biochemical
Experimental: Interleukin 4 inducible protein 1 (IL4I1) is an L-amino oxidase that catalyzes the oxidation of aromatic residues (Phe, Trp and Tyr): L-amino acid+H2O+O2→2-oxo acid+NH3+H2O2. Equal molar of H2O2 and the corresponding alpha-ketoacid are produced when IL4I1 and substrate are added. In this assay, the hydrogen peroxide generated by IL4I1 is then detected through a coupled reaction with Amplex® Red (10-acetyl-3,7-dihydroxyphenoxazine) and horseradish peroxidase (HRP) to produce resorufin product that could be detected in the form of fluorescence signals. The assessment of the inhibitory effect of small molecules (EC50) on IL4I1 is measured by the effectiveness of the compounds to inhibit the production of H2O2.
Using this assay, the potency (EC50) of each compound was determined from a ten-point (1:3 serial dilution) titration curve using the following outlined procedure. To each well of a black flat-bottom Greiner (Cat #781076) 384 well-plate, 25 nL of compound (0.1% DMSO in final assay volume of 25 μL) was dispensed, followed by the addition of 12.5 μL of 1× assay buffer (50 mM Hepes 7.0 and 0.005% Tween20 (Sigma, Cat #P8341; low peroxide grade)) containing 2 nM of recombinant IL4I1 (R&D Systems, Cat #5684-AO-020). Plates were placed in an ambient temperature humidified chamber for a four-hour pre-incubation with compound. Subsequently, each reaction was initiated by the addition of 12.5 μL 1× assay buffer containing 2 mM of each aromatic amino acids (Phe/Tyr/Trp), 0.1 mM Amplex Red and 2 U/mL of HRP. The final reaction in each well of 25 μL consisted of 1 nM of IL4I1, 1 mM of each residues (Phe, Tyr and Trp), 0.05 mM Amplex Red and 1 U/mL of HRP. It should be noted that the concentrations of Amplex Red and HRP used here were in excess such that the conversion of H2O2 to resorufin product occurred instantaneously and was non-rate limiting. Reactions were allowed to proceed for 120 minutes followed by fluorescence readout on a Spectramax with the following set parameters: 544 nm excitation/590 nm emission, 570 nm cutoff (EnVision is an alternative reader). Dose-response curves were generated by plotting percent effect (% product conversion; Y-axis) vs. Log10 compound concentrations (X-axis). EC50 values were calculated using a non-linear regression, four-parameters sigmoidal dose-response model and are shown in Potency Table 1.

recombinant IL4I1, sequence (Q96RQ9 22-567): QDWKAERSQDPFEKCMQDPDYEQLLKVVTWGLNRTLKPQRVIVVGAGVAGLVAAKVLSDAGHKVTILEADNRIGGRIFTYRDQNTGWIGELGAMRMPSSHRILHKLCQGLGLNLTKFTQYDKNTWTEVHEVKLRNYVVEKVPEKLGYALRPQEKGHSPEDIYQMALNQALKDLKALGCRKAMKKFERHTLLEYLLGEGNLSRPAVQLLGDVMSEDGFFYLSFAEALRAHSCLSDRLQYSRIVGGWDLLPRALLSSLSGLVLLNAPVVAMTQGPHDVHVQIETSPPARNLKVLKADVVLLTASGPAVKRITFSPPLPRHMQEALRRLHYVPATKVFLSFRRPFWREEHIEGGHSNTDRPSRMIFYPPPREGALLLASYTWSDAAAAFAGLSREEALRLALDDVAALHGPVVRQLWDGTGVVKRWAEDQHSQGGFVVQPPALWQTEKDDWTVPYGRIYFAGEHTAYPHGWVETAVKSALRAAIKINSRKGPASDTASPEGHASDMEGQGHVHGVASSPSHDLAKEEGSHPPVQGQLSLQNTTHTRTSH

Row | EC50 [nM] | Compound
1 | 14 | O=C1C(=O)N(C2CCCC2)CCN1Cc1cnc(-c2ccccc2)c(F)c1 [Example 102, 1-cyclopentyl-4-((5-fluoro-6-phenylpyridin-3-yl)methyl)piperazine-2,3-dione]
2 | 25 | O=C1C(=O)N(C2CC3CC2C3)CCN1Cc1ccc(-c2ccccc2F)nn1 (stereo not drawn) [Example 184, 1-(bicyclo[2.1.1]hexan-2-yl)-4-((6-(2-fluorophenyl)pyridazin-3-yl)methyl)piperazine-2,3-dione]
3 | 59 | CC(C)(C)N1CCN(Cc2ncc(-c3ccccc3)cn2)C(=O)C1=O [Example 345, 1-(tert-butyl)-4-((5-phenylpyrimidin-2-yl)methyl)piperazine-2,3-dione]
4 | 60 | O=C1C(=O)N(C2CCCC2)CCN1Cc1nnc(N2CC[C@H](F)C2)s1 [Example 311, (S)-1-cyclopentyl-4-((5-(3-fluoropyrrolidin-1-yl)-1,3,4-thiadiazol-2-yl)methyl)piperazine-2,3-dione]
5 | 8 | O=C1C(=O)N([C@H]2C[C@H]3C[C@H]3C2)CCN1Cc1ccc(-c2nccs2)nn1 [Example 374, 1-((cis)-bicyclo[3.1.0]hexan-3-yl)-4-((6-(thiazol-2-yl)pyridazin-3-yl)methyl)piperazine-2,3-dione]
6 | 9 | O=c1c(=O)n(C2CCC2)ccn1Cc1ccc(-n2nccn2)nc1 [Example 409, 1-((6-(2H-1,2,3-triazol-2-yl)pyridin-3-yl)methyl)-4-cyclobutyl-1,4-dihydropyrazine-2,3-dione]
7 | 7 | O=C1C(=O)N(C23CC(C2)C3)CCN1Cc1cnc(-c2ccccc2)cn1 [Example 112, 1-(bicyclo[1.1.1]pentan-1-yl)-4-((5-phenylpyrazin-2-yl)methyl)piperazine-2,3-dione]
8 | 7 | O=c1c(=O)n(C23CC(C2)C3)ccn1Cc1ccc(-n2ccnn2)nc1 [Example 411, 1-((6-(1H-1,2,3-triazol-1-yl)pyridin-3-yl)methyl)-4-(bicyclo[1.1.1]pentan-1-yl)-1,4-dihydropyrazine-2,3-dione]
9 | 8 | O=C1C(=O)N(C2CCCC2)CCN1Cc1nnc(-c2ccccc2F)s1 [Example 13, 1-cyclopentyl-4-((5-(2-fluorophenyl)-1,3,4-thiadiazol-2-yl)methyl)piperazine-2,3-dione]
10 | 4 | O=C1C(=O)N(C23CC(C2)C3)CCN1Cc1ccc(-c2cccc(F)c2)nn1 [Example 65, 1-(bicyclo[1.1.1]pentan-1-yl)-4-((6-(3-fluorophenyl)pyridazin-3-yl)methyl)piperazine-2,3-dione]
11 | 32 | N#CC1(n2ccn(Cc3ccc(-c4cccnc4)nn3)c(=O)c2=O)CC1 [Example 89, 1-(2,3-dioxo-4-((6-(pyridin-3-yl)pyridazin-3-yl)methyl)-3,4-dihydropyrazin-1(2H)-yl)cyclopropane-1-carbonitrile]
12 | 30 | O=C1C(=O)N(C23CC(F)(C2)C3)CCN1Cc1ccc(-c2cncs2)nn1 [Example 243, 1-(3-fluorobicyclo[1.1.1]pentan-1-yl)-4-((6-(thiazol-5-yl)pyridazin-3-yl)methyl)piperazine-2,3-dione]
13 | 57 | O=c1c(=O)n(C23CC(F)(C2)C3)ccn1Cc1ccc(-c2cccnc2)nn1 [Example 215, 1-(3-fluorobicyclo[1.1.1]pentan-1-yl)-4-((6-(pyridin-3-yl)pyridazin-3-yl)methyl)-1,4-dihydropyrazine-2,3-dione]
14 | 4 | O=C1C(=O)N([C@H]2C[C@H]3C[C@H]3C2)CCN1Cc1cc(-c2ccccc2)no1 [Example 170, 1-((cis)-bicyclo[3.1.0]hexan-3-yl)-4-((3-phenylisoxazol-5-yl)methyl)piperazine-2,3-dione]
15 | 6 | O=C1C(=O)N(C23CC(C2)C3)CCN1Cc1nnc(-c2ccccc2F)s1 [Example 31, 1-(bicyclo[1.1.1]pentan-1-yl)-4-((5-(2-fluorophenyl)-1,3,4-thiadiazol-2-yl)methyl)piperazine-2,3-dione]
16 | 29 | CC1(n2ccn(Cc3cn(-c4cccnc4)nn3)c(=O)c2=O)CC1 [Example 429, 1-(1-methylcyclopropyl)-4-((1-(pyridin-3-yl)-1H-1,2,3-triazol-4-yl)methyl)-1,4-dihydropyrazine-2,3-dione]
17 | 15 | O=C1C(=O)N(C2CCC2)CCN1Cc1ccc(-n2nccn2)nc1 [Example 113, 1-((6-(2H-1,2,3-triazol-2-yl)pyridin-3-yl)methyl)-4-cyclobutylpiperazine-2,3-dione]

Row | EC50 [nM] | Compound
18 | 45 | O=c1c(=O)n(C2(CF)CC2)ccn1Cc1cc(-c2cccnc2)on1 [Example 253, 1-(1-(fluoromethyl)cyclopropyl)-4-((5-(pyridin-3-yl)isoxazol-3-yl)methyl)-1,4-dihydropyrazine-2,3-dione]
19 | 21 | O=c1c(=O)n(C23CC(F)(C2)C3)ccn1Cc1cc(-c2ccccn2)on1 [Example 208, 1-(3-fluorobicyclo[1.1.1]pentan-1-yl)-4-((5-(pyridin-2-yl)isoxazol-3-yl)methyl)-1,4-dihydropyrazine-2,3-dione]
20 | 23 | O=C1C(=O)N(C23CC(C2)C3)CCN1Cc1ncc(-n2nccn2)cc1F [Example 405, 1-(bicyclo[1.1.1]pentan-1-yl)-4-((3-fluoro-5-(2H-1,2,3-triazol-2-yl)pyridin-2-yl)methyl)piperazine-2,3-dione]
21 | 15 | O=c1c(=O)n(C2CCC2)ccn1Cc1ncc(-c2ccccc2)cn1 [Example 143, 1-cyclobutyl-4-((5-phenylpyrimidin-2-yl)methyl)-1,4-dihydropyrazine-2,3-dione]
22 | 76 | O=C1C(=O)N(C2CCC2)C2CCCC2N1Cc1ccc(-c2ccccc2)nn1 (single isomer, unassigned) [Example 435B, (S,R or S,R)-1-cyclobutyl-4-((6-phenylpyridazin-3-yl)methyl)hexahydro-1H-cyclopenta[b]pyrazine-2,3-dione]
23 | 24 | O=C1C(=O)N(C2CCCC2)CCN1Cc1cnc(-c2ccccc2)nc1 [Example 270, 1-cyclopentyl-4-((2-phenylpyrimidin-5-yl)methyl)piperazine-2,3-dione]
24 | 34 | O=C1C(=O)N(C2CCCC2)CCN1Cc1cc(-c2ccccc2)n[nH]1 [Example 274, 1-cyclopentyl-4-((3-phenyl-1H-pyrazol-5-yl)methyl)piperazine-2,3-dione]
25 | 11 | [2H]C1(n2ccn(Cc3nnc(-c4ccccc4)s3)c(=O)c2=O)CCCC1 [Example 293, 1-(cyclopentyl-1-d)-4-((5-phenyl-1,3,4-thiadiazol-2-yl)methyl)-1,4-dihydropyrazine-2,3-dione]
26 | 69 | CC1(N2CCN(Cc3nnc(-c4ccccc4)s3)C(=O)C2=O)COC1 [Example 302, 1-(3-methyloxetan-3-yl)-4-((5-phenyl-1,3,4-thiadiazol-2-yl)methyl)piperazine-2,3-dione]
27 | 22 | O=C1C(=O)N(C2CCC2)CCN1Cc1ccc(-c2cc(F)cc(F)c2)nn1 [Example 22, 1-cyclobutyl-4-((6-(3,5-difluorophenyl)pyridazin-3-yl)methyl)piperazine-2,3-dione]
28 | 5 | O=c1c(=O)n(C2CCC2)ccn1Cc1cnc(-c2ccccc2)nc1 [Example 130, 1-cyclobutyl-4-((2-phenylpyrimidin-5-yl)methyl)-1,4-dihydropyrazine-2,3-dione]
29 | 36 | O=C1C(=O)N(C2CCCC2)CCN1Cc1ccc(N2CCC2)nn1 [Example 318, 1-((6-(azetidin-1-yl)pyridazin-3-yl)methyl)-4-cyclopentylpiperazine-2,3-dione]
30 | 343 | N#CC1(n2ccn(Cc3ccc(-n4ccnn4)nc3)c(=O)c2=O)CC1 [Example 390, 1-(4-((6-(1H-1,2,3-triazol-1-yl)pyridin-3-yl)methyl)-2,3-dioxo-3,4-dihydropyrazin-1(2H)-yl)cyclopropane-1-carbonitrile]
31 | 19 | O=C1C(=O)N(C2CCC2)CCN1Cc1ccc(-n2nccn2)cc1 [Example 399, 1-(4-(2H-1,2,3-triazol-2-yl)benzyl)-4-cyclobutylpiperazine-2,3-dione]
32 | 15 | [2H]c1c([2H])c([2H])c(-c2ccc(CN3CCN(C4CCC4)C(=O)C3=O)nn2)c([2H])c1[2H] [Example 80, 1-cyclobutyl-4-((6-(phenyl-d5)pyridazin-3-yl)methyl)piperazine-2,3-dione]
33 | 16 | O=C1C(=O)N(C2CCCC2)CCN1Cc1ncc(-c2cn[nH]c2)cc1F [Example 16, 1-cyclopentyl-4-((3-fluoro-5-(1H-pyrazol-4-yl)pyridin-2-yl)methyl)piperazine-2,3-dione]
